In patent publication US7129226B2, “Mimetic insect allatostatin analogs for insect control” (The United States of America as represented by the …, priority 1998, dated 2006):
Read-outs that look alike come from different tables or passages of the source. Ends that are not written are not given here. Peptide text beside a SMILES is read from it. carboranyl propanoic acid = 2-o-carboranylpropanoic acid

Legend:
[1] = in vitro; format: in vitro ADME, Diploptera punctata
Method: (§1) Day 5 mated female D. punctata were anaesthetized on ice before dissection. Following dissection, tissues were stored in saline (0.9% NaCl pH 7.0–7.2 or cockroach saline; […] at pH 7.2–7.4) on ice. Tissues were cleaned of fat body and trachea and guts were cleaned. Midgut peritrophic membrane was removed, midguts cut open, the guts gently pulled through forceps and then washed 3×. Tissues were stored at −70° C. until sufficient material was collected.
(§2) Hemolymph was collected following the method of King and Tobe (Insect Biochem., 18:793–805, 1988). Hemolymph was diluted 100× with saline.
(§3) Crude membrane preparation or hemolymph was aliquoted into 1.5 ml microcentrifuge tubes for in vitro assay. Dip-AST5 (6 μM) or analog was added to each assay tube from a 1 mM stock solution. Total incubation volume was 500 μl. Tubes were placed on a shaker at room temp for the duration of the incubation time. Incubations were terminated by the addition of 200 μl 30% aqueous TFA. Samples were centrifuged at 10,000 g and the supernatant was applied to a C18 solid phase extraction column. None of the potential, synthetic Dip-AST5 metabolites are lost (unpublished data). The 17–40% acetonitrile fraction was concentrated with a Speed-Vac apparatus and held at −70° C. until HPLC analysis. Samples is were diluted in 0.5 ml 0.1% aqueous TFA, filtered through 0.2 μm micro-spin filters and injected onto the HPLC column. Separation of allatostatins and their catabolites, or analogs and their catabolites, was performed using reversed-phase HPLC (see HPLC methods). When available, retention times of synthetic metabolites were used as a reference to identify endogenous metabolites. Dip-AST5 fragments were synthesized by the Institute for Biosciences and Technology, Dept. of Entomology, Texas A & M University. Dip-ASTs were synthesized by the Core Facility of Insect Biotech Canada (Department of Biochemistry, Queen's University) or obtained from Sigma Chemical Co., St. Louis, Mo. 63178 USA. The identity of fragments resulting from peptidase degradation was also confirmed by FAB mass spectrometry by adding samples in a glycerol medium (1.5 μl) onto a copper probe, followed by bombardment with 8 kV Xe atoms on a Kratos MS-50 mass spectrometer. (Kratos, Manchester, UK).
(§4) Degradation experiments were analyzed by RP-HPLC using a 220×4.6 mm Brownlee Phenyl column (5 μm) on a Spectra-Physics chromatography system with a Spectra-Physics Chromjet integrator and a Spectra-Physics 8490 detector. Following a 5 min wash with 1.5% acetonitrile in 0.1 aqueous TFA, a linear gradient of acetonitrile (15–37.5% in 50 min; 37.5–65% in 5 min) at a flow rate of 0.5 ml/min was used to elute peptides and analogs. […]

[2] = system: corpora allata of the cockroach Diploptera punctata (JH biosynthesis); test: In vitro radiochemical assay of JH biosynthesis/release by corpora allata; format: cell-based; conditions: for bioactivity (inhibition of JH biosynthesis): result in words
Method: Rates of JH release were determined by the in vitro radiochemical method of Feyereisen and Tobe (Anal. Biochem., 111:372–375, 1981) and as modified by Tobe and Clarke (Tobe and Clarke, Insect Biochem., 15:175–179, 1985). The incorporation of L[^14C—S-methyl]-methionine (50 μM, specific radioactivity 1.48–2.03 GBq/mmol from New England Nuclear or Amersham) into JH III at its penultimate step of biosynthesis by CA incubated in 50 μl TC 199 (GIBCO, 1.3 mM Ca^2+, 2% Ficoll, methionine-free) was used to quantify JH release. Animals were anaesthetized on ice prior to dissection. Corpora allata were dissected directly into non-radioactive medium (only animals with oviposited basal oocytes were used for assay). Samples were dried with nitrogen and resuspended in 10 μl 1N HCl. Radioactive medium was added and neutralized with 10 μl NaOH. Individual CA were transferred from non-radioactive medium to radioactive medium and were incubated for 3 h. The amount of inhibition was expressed as the percent reduction from the untreated rate: [1-(treated rate/untreated rate))] ×100%. Each value represents replicate incubations of a minimum of 8 tests.
D. punctata females mate almost immediately following emergence. Therefore, newly emerged, mated females were transferred each day from the stock culture to an incubator and kept at 27±1° C. The relative humidity was approximately 50% with a 12 hour light:dark cycle. Insects were reared on Purina Lab Chow and water. Mating was confirmed by the presence of a spermatophore. Basal oocyte length was also measured (day 5=1.44–1.68 mm). Only day 5 mated females were utilized for the degradation studies. Day 7 mated females (only with oviposited basal oocytes) were the source of corpora allata for analysis of JH biosynthesis.
Radiochemical assays were conducted as described in Example 1.

[3] = in vitro; format: in vitro ADME, Diploptera punctata; remark: listed apart in the source
Method: as §1
(§5) Tissues were pooled and homogenized in saline on ice in microcentrifuge tubes (2.5 ml) for 2 min with an Omni hand held homogenizer. Homogenates were centrifuged at 1000 g for ten min at 4° C. to remove cellular debris. The pellet was discarded. Supernatant was subsequently centrifuged at 30,000 g for 30 min. Pellet (crude membrane preparation) was washed three times in homogenization buffer and resuspended in saline using the Omni homogenizer.
as §3
(§6) Degradation experiments were analyzed by RP-HPLC using a 220×4.6 mm Brownlee Phenyl column (5 μm) on a Spectra-Physics chromatography system with a Spectra-Physics Chromjet integrator and a Spectra-Physics 8490 detector. Following a 5 min wash with 1.5% acetonitrile in 0.1 aqueous TFA, a linear gradient of acetonitrile (15–37.5% in 50 min; 37.5–65% in 5 min) at a flow rate of 0.5 ml/min was used to elute peptides and analogs. Fractions (0.5 ml) were collected each minute during the gradient run.

[4] = system: brain peptidases; test: in vitro; format: in vitro ADME, Diploptera punctata; conditions: female, tissue homogenate; for half-life at 6 μM: Diploptera punctata
Method: as §1, §5, §3, §6

[5] = system: hemolymph peptidases; test: in vitro; format: in vitro ADME, Diploptera punctata; conditions: female, Diploptera punctata
Method: as §1, §2, §3, §4

[6] = Penetration of analog through isolated cockroach cuticle (RPLC of well contents); format: in vitro ADME, American cockroach
Method: Adults of the American cockroach were obtained from. colonies at our facility (CMAVE). Animals, anesthetized by submersion in H2O for 30 min, were pinned ventral side up in a wax dissecting dish flooded with water. Lateral incisions along the margins of the abdominal sternites were made between segments 1–7. The epidermal layers including the cuticle and epidermal cells were lifted up and associated tissue was cleared using forceps prior to removal. The epidermal tissue was placed cell side up on a microscope slide and the cells were scraped from the cuticle using a glass cover slip. To further clean the cuticle of cellular debris the tissue was floated, cell side down, in a beaker containing H2O and subjected to sonication in a water bath at 30° C. for 30 min. The cuticle strips were then washed 3× in clean water. Pieces of cuticle, ca. 0.4 cm^2, composed of individual sternites without associated intersegmental membranes were then dissected away from remaining cuticle.
Incubation of cuticle was accomplished using the wells of ELISA plates (Corning, 96 well Easy Wash). […]
Dried samples were reconstituted in 35% acetonitrile (MeCN) (Burdick and Jackson) prior to analysis. […] Data acquired from analyses were reduced and analyzed using NCSS 97 software using regression analysis and T-Tests.

[7] = system: midgut peptidases; test: in vitro; format: in vitro ADME, Diploptera punctata; conditions: female, tissue homogenate
Method: as §1, §5, §3, §6

[8] = 3 h in vitro radiochemical assay, single 7-day mated CA, read-out: IC50, half-maximal inhibition of JH release

“DRLYSFGL-NH2 [Dip-AST5, reference compound]” showed a half-life at 6 μM ([1]; female, Diploptera punctata) of 2.55 h, an IC50 [2, 8] of 3.12 nM and an IC50 ([2]; read-out: IC50) of 3.1 nM.
In the case of “carboranyl propanoic acid-Ser-Phe-Gly-Leu-NH2 ({carboranyl propanoic acid}-SFGL-NH2)”, the EC50 ([2]; in another assay, read-out: activity (ED50)) is reported as 0.644 nM.
In the case of `CC(C)C[C@H](NC(=O)C1(NC(=O)[C@H](Cc2ccccc2)NC(=O)[C@H](CC(N)=O)NC(=O)CCc2ccccc2)CC1)C(N)=O` [AST(b)φ2, Hca-Asn-Phe-Cpa-Leu-NH2] (HELM PEPTIDE1{[O=C(CCc1ccccc1)[*:2]].N.F.[O=C(C1(N[*:1])CC1)[*:2]].L.[am]}$$$$V2.0), the “longer half-life than the native neuropeptide Dip-AST5” value [3] is reported as 600 fold, the “resistance to midgut peptidases” value [3] is reported as “completely resistant” and the “Half-life, Midgut” value ([3]; tissue homogenate) is reported as “∞”. For the same molecule, the half-life at 6 μM [4] was 180 h, the “longer half-life than the native neuropeptide Dip-AST5” value [1] was 8 fold and the “resistance to degradation by enzymes” value [1] was “extreme resistance”. For the same molecule, the half-life at 6 μM [5] was 20.2 h, the IC50 [2, 8] was 1550 nM and the “bioactivity (inhibition of JH biosynthesis)” value [2] was “significant biological activity”.
In the case of `CC(C)C[C@H](NC(=O)CNC(=O)[C@H](Cc1ccccc1)NC(=O)[C@H](CC(N)=O)NC(=O)[C@H](Cc1ccc(O)cc1)NC(=O)CC1c2ccccc2-c2ccccc21)C(N)=O` [analog 525] (HELM PEPTIDE1{[O=C(CC1c2ccccc2-c2ccccc21)[*:2]].Y.N.F.G.L.[am]}$$$$V2.0), the “release rate through the cuticle” value ([6]; 0.5 nmol applied to cuticle, rate stabilized after six hours) is reported as “about 1.5 pmol/h” and the “penetration of the cuticle” value ([6]; cockroach cuticle, result in words) is reported as “penetrated the cuticle effectively”.
With `CC(C)C[C@H](NC(=O)CNC(=O)C1(NC(=O)[C@H](CC(N)=O)NC(=O)[C@H](Cc2ccc(O)cc2)NC(=O)[C@@H]2CCCN2C(=O)[C@H](CCCNC(=N)N)NC(=O)[C@H](C)N)Cc2ccccc2C1)C(N)=O` [analog 396-1, Ala-Arg-Pro-Tyr-Asn-Aic-Gly-Leu-NH2] (HELM PEPTIDE1{A.R.P.Y.N.[O=C(C1(N[*:1])Cc2ccccc2C1)[*:2]].G.L.[am]}$$$$V2.0; N-terminus assumed) the “resistance to cleavage by membrane-bound enzymes” value [3] was “little resistance”, the half-life [4] was 0.287 h and the half-life [7] was 0.377 h. The IC50 ([2]; read-out: IC50) was 2.12 nM and the “bioactivity (inhibition of JH biosynthesis)” value [2] was “significant bioactivity”.
For `CC(C)C[C@H](NC(=O)C1(NC(=O)[C@H](Cc2ccccc2)NC(=O)[C@H](CC(N)=O)NC(=O)[C@H](Cc2ccc(O)cc2)NC(=O)[C@@H]2CCCN2C(=O)[C@H](CCCNC(=N)N)NC(=O)[C@H](C)N)CC1)C(N)=O` [analog 397-2, Ala-Arg-Pro-Tyr-Asn-Phe-Cpa-Leu-NH2] (HELM PEPTIDE1{A.R.P.Y.N.F.[O=C(C1(N[*:1])CC1)[*:2]].L.[am]}$$$$V2.0; N-terminus assumed), the “resistance to cleavage by membrane-bound enzymes” value [3] was “little resistance”, the half-life at 6 μM [4] was 1.01 h and the half-life at 6 μM ([7]; Diploptera punctata) was 0.347 h. The IC50 [2, 8] was 172 nM and the “bioactivity (inhibition of JH biosynthesis)” value [2] was “significant bioactivity”.
